Test results as given in patent US20120156771A1, “FUNCTIONAL DISRUPTION OF AN IMMUNOGLOBULIN GENE IN AN AVIAN EMBRYONIC STEM CELL” (Origen Therapeutics, Inc., priority 2002, published 2012).

Test system: chicken embryonic stem cells
Test: Titration kill curve: morphology of cES cells under puromycin or neomycin selection
Type: cell-based
Parameters: key to Morphology of cES cells: ES: ES cells are present.; diff: ES cells are differentiated.; gone: no morphologically recognizable cells are present
Protocol: In a preferred embodiment, the concentration of puromycin required for selecting transfected cells is calculated as a titration kill curve. Titration kill curves for chicken embryonic stem cells are established by exposing cells in culture to puromycin concentrations varying from 0.0 to 1.0 μg/ml for 10 days (Table 7) and neomycin concentrations varying from 0.0 to 200 μg/ml (Table 8). The medium is changed every 2 days and fresh puromycin or neomycin is added. […] Puromycin concentrations of 0.3-1.0 μg/ml are used for selection of the transfected cultures. Neomycin concentrations over 40 μg/ml eliminated all cES cells within 7 days (Table 8).

## COc1ccc(C[C@H](N)C(=O)N[C@H]2[C@@H](O)[C@H](n3cnc4c(N(C)C)ncnc43)O[C@@H]2CO)cc1 [puromycin]
0.3 μg/ml puromycin, after 3 changes of medium with fresh puromycin over a six day period
  Presence of ES cells in wells: absent from all wells
Puromycin 0.1 μg/ml, day 1 under selection
  Morphology of cES cells: ES
Puromycin 0.1 μg/ml, day 2 under selection
  Morphology of cES cells: ES
Puromycin 0.1 μg/ml, day 3 under selection
  Morphology of cES cells: ES
Puromycin 0.1 μg/ml, day 4 under selection
  Morphology of cES cells: ES
Puromycin 0.1 μg/ml, day 5 under selection
  Morphology of cES cells: ES
Puromycin 0.1 μg/ml, day 6 under selection
  Morphology of cES cells: ES
Puromycin 0.1 μg/ml, day 7 under selection
  Morphology of cES cells: ES
Puromycin 0.1 μg/ml, day 8 under selection
  Morphology of cES cells: ES
Puromycin 0.1 μg/ml, day 9 under selection
  Morphology of cES cells: ES
Puromycin 0.1 μg/ml, day 10 under selection
  Morphology of cES cells: ES
Puromycin 0.2 μg/ml, day 1 under selection
  Morphology of cES cells: ES
Puromycin 0.2 μg/ml, day 2 under selection
  Morphology of cES cells: ES
Puromycin 0.2 μg/ml, day 3 under selection
  Morphology of cES cells: ES
Puromycin 0.2 μg/ml, day 4 under selection
  Morphology of cES cells: ES
Puromycin 0.2 μg/ml, day 5 under selection
  Morphology of cES cells: ES
Puromycin 0.2 μg/ml, day 6 under selection
  Morphology of cES cells: ES
Puromycin 0.2 μg/ml, day 7 under selection
  Morphology of cES cells: ES
Puromycin 0.2 μg/ml, day 8 under selection
  Morphology of cES cells: ES
Puromycin 0.2 μg/ml, day 9 under selection
  Morphology of cES cells: ES
Puromycin 0.2 μg/ml, day 10 under selection
  Morphology of cES cells: ES
Puromycin 0.25 μg/ml, day 1 under selection
  Morphology of cES cells: ES
Puromycin 0.25 μg/ml, day 2 under selection
  Morphology of cES cells: ES
Puromycin 0.25 μg/ml, day 3 under selection
  Morphology of cES cells: ES
Puromycin 0.25 μg/ml, day 4 under selection
  Morphology of cES cells: ES
Puromycin 0.25 μg/ml, day 5 under selection
  Morphology of cES cells: ES
Puromycin 0.25 μg/ml, day 6 under selection
  Morphology of cES cells: diff
Puromycin 0.25 μg/ml, day 7 under selection
  Morphology of cES cells: diff
Puromycin 0.3 μg/ml, day 1 under selection
  Morphology of cES cells: ES
Puromycin 0.3 μg/ml, day 2 under selection
  Morphology of cES cells: ES
Puromycin 0.3 μg/ml, day 3 under selection
  Morphology of cES cells: diff
Puromycin 0.3 μg/ml, day 6 under selection
  Morphology of cES cells: gone
Puromycin 0.3 μg/ml, day 7 under selection
  Morphology of cES cells: gone
Puromycin 0.3 μg/ml, day 8 under selection
  Morphology of cES cells: gone
Puromycin 0.3 μg/ml, day 9 under selection
  Morphology of cES cells: gone
Puromycin 0.3 μg/ml, day 10 under selection
  Morphology of cES cells: gone
Puromycin 0.4 μg/ml, day 1 under selection
  Morphology of cES cells: ES
Puromycin 0.4 μg/ml, day 2 under selection
  Morphology of cES cells: diff
Puromycin 0.4 μg/ml, day 3 under selection
  Morphology of cES cells: gone
Puromycin 0.4 μg/ml, day 4 under selection
  Morphology of cES cells: gone
Puromycin 0.4 μg/ml, day 5 under selection
  Morphology of cES cells: gone
Puromycin 0.4 μg/ml, day 6 under selection
  Morphology of cES cells: gone
Puromycin 0.4 μg/ml, day 7 under selection
  Morphology of cES cells: gone
Puromycin 0.4 μg/ml, day 8 under selection
  Morphology of cES cells: gone
Puromycin 0.4 μg/ml, day 9 under selection
  Morphology of cES cells: gone
Puromycin 0.4 μg/ml, day 10 under selection
  Morphology of cES cells: gone
Puromycin 0.5 μg/ml, day 1 under selection
  Morphology of cES cells: diff
Puromycin 0.5 μg/ml, day 2 under selection
  Morphology of cES cells: gone
Puromycin 0.5 μg/ml, day 3 under selection
  Morphology of cES cells: gone
Puromycin 0.5 μg/ml, day 4 under selection
  Morphology of cES cells: gone
Puromycin 0.5 μg/ml, day 5 under selection
  Morphology of cES cells: gone
Puromycin 0.5 μg/ml, day 6 under selection
  Morphology of cES cells: gone
Puromycin 0.5 μg/ml, day 7 under selection
  Morphology of cES cells: gone
Puromycin 0.5 μg/ml, day 8 under selection
  Morphology of cES cells: gone
Puromycin 0.5 μg/ml, day 9 under selection
  Morphology of cES cells: gone
Puromycin 0.5 μg/ml, day 10 under selection
  Morphology of cES cells: gone
Puromycin 0.6 μg/ml, day 1 under selection
  Morphology of cES cells: diff
Puromycin 0.6 μg/ml, day 2 under selection
  Morphology of cES cells: gone
Puromycin 0.6 μg/ml, day 3 under selection
  Morphology of cES cells: gone
Puromycin 0.6 μg/ml, day 4 under selection
  Morphology of cES cells: gone
Puromycin 0.6 μg/ml, day 5 under selection
  Morphology of cES cells: gone
Puromycin 0.6 μg/ml, day 6 under selection
  Morphology of cES cells: gone
Puromycin 0.6 μg/ml, day 7 under selection
  Morphology of cES cells: gone
Puromycin 0.6 μg/ml, day 8 under selection
  Morphology of cES cells: gone
Puromycin 0.6 μg/ml, day 9 under selection
  Morphology of cES cells: gone
Puromycin 0.6 μg/ml, day 10 under selection
  Morphology of cES cells: gone
Puromycin 0.7 μg/ml, day 1 under selection
  Morphology of cES cells: diff
Puromycin 0.7 μg/ml, day 2 under selection
  Morphology of cES cells: gone
Puromycin 0.7 μg/ml, day 3 under selection
  Morphology of cES cells: gone
Puromycin 0.7 μg/ml, day 4 under selection
  Morphology of cES cells: gone
Puromycin 0.7 μg/ml, day 5 under selection
  Morphology of cES cells: gone
Puromycin 0.7 μg/ml, day 6 under selection
  Morphology of cES cells: gone
Puromycin 0.7 μg/ml, day 7 under selection
  Morphology of cES cells: gone
Puromycin 0.7 μg/ml, day 8 under selection
  Morphology of cES cells: gone
Puromycin 0.7 μg/ml, day 9 under selection
  Morphology of cES cells: gone
Puromycin 0.7 μg/ml, day 10 under selection
  Morphology of cES cells: gone
Puromycin 0.8 μg/ml, day 1 under selection
  Morphology of cES cells: gone
Puromycin 0.8 μg/ml, day 2 under selection
  Morphology of cES cells: gone
Puromycin 0.8 μg/ml, day 3 under selection
  Morphology of cES cells: gone
Puromycin 0.8 μg/ml, day 4 under selection
  Morphology of cES cells: gone
Puromycin 0.8 μg/ml, day 5 under selection
  Morphology of cES cells: gone
Puromycin 0.8 μg/ml, day 6 under selection
  Morphology of cES cells: gone
Puromycin 0.8 μg/ml, day 7 under selection
  Morphology of cES cells: gone
Puromycin 0.8 μg/ml, day 8 under selection
  Morphology of cES cells: gone
Puromycin 0.8 μg/ml, day 9 under selection
  Morphology of cES cells: gone
Puromycin 0.8 μg/ml, day 10 under selection
  Morphology of cES cells: gone
